Assay results: patent US8008346B2, “Chemotherapeutic agents for inhibition of protein translation” (The Royal University for the Advancement of Learning/McGill …, priority 2006, dated 2011)

Assays:
eIF4Ac and eIF4B = molecular target: T1, eIF4Ac and eIF4B (Homo sapiens, UniProt P60842); assay: Chemical crosslinking of initiation factors to 32P cap-labeled mRNA; assay type: binding; conditions: 50 μM, in presence of ATP
T1 construct: Chemical crosslinking of initiation factor preparations to ^32P cap-labeled oxidized CAT mRNA
Procedure: FIG. 6. Hippuristanol inhibits translation initiation. A. Hippuristanol inhibits 80S complex formation. ^32P-labeled CAT mRNA was incubated in rabbit reticulocyte lysate with cycloheximide (CHX) in the presence or absence of 50 μM hippuristanol. Complexes were resolved on glycerol gradients. Total counts recovered from each gradient and the percent mRNA bound in 80S complexes were: CAT mRNA/CHX [43,498 cpm, 22% binding] and CAT mRNA/CHX+Hipp. [45,279 cpm, 5.7% binding]. B. Hippuristanol inhibits crosslinking of eIF4Ac and eIF4B to capped mRNA. Initiation factors were chemically crosslinked to ^32P cap-labeled mRNA in the absence (lane 2) or presence of ATP (lanes 1, 3-6), 0.6 mM m^7GDP (lane 3), 0.6 mM GDP (lane 4), or 50 μM hippuristanol (lane 6). Following nuclease digestion, samples were resolved by SDS-PAGE and the gel subjected to autoradiography.
Ribosome Binding and mRNA Crosslinking. Ribosome binding assays were performed by incubating ^32P-labelled CAT mRNA in rabbit reticulocyte lysate or wheat germ extracts in the presence of: 600 μM cycloheximide (CHX), 1 mM GMP-PNP, and/or 50 μM hippuristanol or vehicle for 10 min (33). […] Fractions of 500 μl were collected and radioactivity was determined by scintillation counting. […]

eIF4AIf [1] = molecular target: T2, eIF4AIf (Mus musculus, UniProt P60843); assay: UV crosslinking of alpha-32P-ATP to recombinant eIF4AIf; assay type: binding, murine; conditions: 50 μM
T2 construct: inferred only from the Ni-NTA purification; made in house; host or cells: Escherichia coli BL21 (DE3) codon+
Procedure: (§1) FIG. 7. Effects of hippuristanol on ATP hydrolysis, ATP binding, and RNA binding activities of eIF4A. A. Hippuristanol inhibits eIF4AIf RNA-dependent ATPase activity. The rate of ATP hydrolysis as a function of hippuristanol concentration is plotted relative to the rate obtained in the presence of vehicle (0.5% DMSO). ATP hydrolysis was measured in the presence of 2.5 μM poly (U) and monitored by thin layer chromatography. […] Samples were resolved by SDS-PAGE and subjected to autoradiography. C. The RNA binding activity of eIF4AIf is inhibited by hippuristanol. Oxidized ^32P-cap labeled CAT mRNA was incubated with recombinant eIF4AIf in the absence (lane 2) or presence of ATP (lanes 1, 3-6), 0.6 mM m^7GDP (lane 3), 0.6 mM GDP (lane 4), or 50 μM hippuristanol (lane 6). Following treatment with RNase A, samples were resolved by SDS-PAGE and subjected to autoradiography. The asterisk denotes the position of migration of a ˜30 kDa contaminant in the recombinant eIF4AIf preparation used as an internal loading reference. D. The RNA binding activity of eIF4Ac is inhibited by hippuristanol. Oxidized ^32P-cap labeled CAT mRNA was incubated with 0.7 μg of native eIF4F in the absence (lane 1) or presence (lane 2) of 50 μM hippuristanol. […]
(§2) Recombinant eIF4AI Purification and Assays. […] Quantifications were performed on a Fujix BAS2000 phosphoimager with a Fuji imaging screen. […]

[2] = system: in vitro splicing reactions; assay: In vitro splicing of AdML pre-mRNA in nuclear extracts; assay type: biochemical; conditions: 2 μM, 10 μM and 50 μM
Procedure: (§3) FIG. 8. Selective inhibition of eIF4A activity by hippuristanol. A. Hippuristanol inhibits eIF4AIf-mediated helicase activity. Unwinding reactions were performed with RNA-1/RNA-11 duplex and recombinant eIF4AIf or Ded1p. The presence of 50 μM hippuristanol in the reaction is indicated above the panel. […] Double-stranded RNA duplex and single-stranded RNA molecules are schematically represented to the left of the panel. […] In vitro splicing reactions were performed with the AdML pre-mRNAs as previously described (48). AdML pre-mRNA was incubated with nuclear extracts in the presence of increasing amounts of hippuristanol (2 μM [lane4], 10 μM [lane 5] and 50 μM [lane 6]). Reaction products were resolved on 15% polyacrylamide/8M urea gels and subjected to autoradiography. The position of migration of the pre-mRNA and spliced product is denoted to the right. C. Rescue of hippuristanol-induced inhibition with recombinant eIF4AIf. […] A graphical representation from three experiments is provided below. Translational efficiency was calculated relative to luciferase values obtained from control translations containing vehicle (0.5% DMSO).

eIF4AIf [3] = molecular target: T2, eIF4AIf; assay: Crosslinking of oxidized 32P-cap labeled CAT mRNA to recombinant eIF4AIf (RNA binding); set-up: species or system murine; conditions: 50 μM
Procedure: as §1
Ribosome Binding and mRNA Crosslinking. […] Fractions of 500 μl were collected and radioactivity was determined by scintillation counting. […]

eIF4AIf [4] = molecular target: T2, eIF4AIf; assay: Helicase (unwinding) assay with RNA-1/RNA-11 duplex; assay type: biochemical, murine; conditions: 50 μM
Procedure: as §3, §2

eIF4AIf [5] = molecular target: T2, eIF4AIf; assay: RNA-dependent ATPase assay with recombinant eIF4AIf; assay type: biochemical, murine; conditions: 2.5 μM poly (U); relative to vehicle (0.5% DMSO)
Procedure: as §1, §2

[6] = system: Mahoney strain of poliovirus type 1; assay type: cell-based; conditions: HeLa cells, 2 pfu/cell, 80 nM

T2 sequence (P60843 whole entry): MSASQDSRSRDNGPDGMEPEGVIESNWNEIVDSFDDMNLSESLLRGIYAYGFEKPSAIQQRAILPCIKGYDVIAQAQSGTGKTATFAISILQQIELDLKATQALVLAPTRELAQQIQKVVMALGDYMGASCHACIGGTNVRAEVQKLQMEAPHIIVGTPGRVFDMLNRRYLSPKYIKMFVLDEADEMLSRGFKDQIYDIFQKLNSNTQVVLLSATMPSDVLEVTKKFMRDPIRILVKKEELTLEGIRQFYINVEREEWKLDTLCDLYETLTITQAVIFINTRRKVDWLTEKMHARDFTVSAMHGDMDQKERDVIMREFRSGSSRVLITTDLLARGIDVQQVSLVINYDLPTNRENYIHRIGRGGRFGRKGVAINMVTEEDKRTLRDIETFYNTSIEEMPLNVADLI
T1 sequence (P60842 whole entry): as the sequence (P60843 whole entry) above
T1 sequence (Q04637 whole entry partner): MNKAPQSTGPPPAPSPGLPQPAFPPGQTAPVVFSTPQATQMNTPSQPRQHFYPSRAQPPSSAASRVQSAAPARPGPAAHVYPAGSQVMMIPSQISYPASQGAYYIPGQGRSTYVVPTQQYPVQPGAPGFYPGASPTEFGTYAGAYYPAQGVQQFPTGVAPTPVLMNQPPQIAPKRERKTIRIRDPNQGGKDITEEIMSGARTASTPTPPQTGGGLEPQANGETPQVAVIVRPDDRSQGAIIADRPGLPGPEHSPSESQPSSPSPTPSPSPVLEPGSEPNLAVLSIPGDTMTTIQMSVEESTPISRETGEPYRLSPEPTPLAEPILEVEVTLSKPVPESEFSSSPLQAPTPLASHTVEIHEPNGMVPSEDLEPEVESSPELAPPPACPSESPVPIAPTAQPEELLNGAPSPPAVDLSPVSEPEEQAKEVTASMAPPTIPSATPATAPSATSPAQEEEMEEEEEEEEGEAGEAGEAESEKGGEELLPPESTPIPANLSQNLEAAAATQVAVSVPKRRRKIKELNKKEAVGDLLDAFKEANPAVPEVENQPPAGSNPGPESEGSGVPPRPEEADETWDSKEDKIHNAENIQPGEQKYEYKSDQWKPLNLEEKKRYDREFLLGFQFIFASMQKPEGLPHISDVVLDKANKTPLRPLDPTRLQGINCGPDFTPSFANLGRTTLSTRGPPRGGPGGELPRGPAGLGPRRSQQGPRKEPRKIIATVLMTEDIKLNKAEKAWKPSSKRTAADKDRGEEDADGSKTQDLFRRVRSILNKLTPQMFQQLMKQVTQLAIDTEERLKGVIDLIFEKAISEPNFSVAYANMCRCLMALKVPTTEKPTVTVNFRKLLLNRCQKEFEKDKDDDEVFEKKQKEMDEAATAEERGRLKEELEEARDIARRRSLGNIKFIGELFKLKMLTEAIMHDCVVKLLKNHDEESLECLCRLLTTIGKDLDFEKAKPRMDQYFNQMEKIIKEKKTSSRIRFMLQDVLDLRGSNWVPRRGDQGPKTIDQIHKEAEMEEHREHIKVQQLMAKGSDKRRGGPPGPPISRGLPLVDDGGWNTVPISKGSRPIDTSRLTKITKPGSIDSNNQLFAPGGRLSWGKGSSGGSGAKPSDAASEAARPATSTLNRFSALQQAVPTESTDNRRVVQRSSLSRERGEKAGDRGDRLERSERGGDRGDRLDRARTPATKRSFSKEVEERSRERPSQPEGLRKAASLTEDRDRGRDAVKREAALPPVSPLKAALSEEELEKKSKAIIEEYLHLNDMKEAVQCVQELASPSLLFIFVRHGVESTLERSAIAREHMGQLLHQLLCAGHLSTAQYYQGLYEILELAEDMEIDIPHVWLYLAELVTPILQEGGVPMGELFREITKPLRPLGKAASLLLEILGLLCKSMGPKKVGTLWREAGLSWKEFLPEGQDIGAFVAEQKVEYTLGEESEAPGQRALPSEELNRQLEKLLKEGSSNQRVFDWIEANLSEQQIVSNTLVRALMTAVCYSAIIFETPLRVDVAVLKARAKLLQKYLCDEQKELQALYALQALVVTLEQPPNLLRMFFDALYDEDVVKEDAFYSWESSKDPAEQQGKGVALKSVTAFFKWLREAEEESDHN
T1 sequence (P06730 whole entry partner): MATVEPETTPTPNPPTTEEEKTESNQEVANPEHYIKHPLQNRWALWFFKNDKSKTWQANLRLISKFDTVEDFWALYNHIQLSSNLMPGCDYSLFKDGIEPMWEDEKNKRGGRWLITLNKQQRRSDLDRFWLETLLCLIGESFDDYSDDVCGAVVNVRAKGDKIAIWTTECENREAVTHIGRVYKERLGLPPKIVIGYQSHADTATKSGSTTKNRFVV

Question: Which results are given for C[C@H]1C[C@@]2(O[C@H]3C[C@H]4[C@@H]5CC[C@H]6C[C@H](O)CC[C@]6(C)[C@H]5[C@@H](O)C[C@]4(C)[C@H]3[C@@]2(C)O)OC1(C)C [Hippuristanol, hippuristanol]?
Answer: crosslinking of eIF4Ac and eIF4B to capped mRNA (eIF4Ac and eIF4B): inhibits; ATP crosslinking to eIF4AIf (eIF4AIf [1]): does not affect; in vitro splicing reactions [2]: does not inhibit; RNA binding activity of eIF4AIf (eIF4AIf [3]): inhibited; eIF4AIf-mediated helicase activity (eIF4AIf [4]): inhibits; eIF4AIf RNA-dependent ATPase activity (eIF4AIf [5]): inhibits; eIF4GII cleavage following poliovirus infection [6]: delays; onset of poliovirus proteins during infection [6]: delays
